# Data from PubChem BioAssay (NCI).
#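 Following 48 hours of exposure in 96-well plates, responses at five concentrations were used to interpolate endpoints linearly. GI50 is the concentration that inhibits growth by half. TGI denotes the concentration required for complete inhibition of growth.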
# Tests used:
# Experiment in all cases: growth of human tumour cells (NCI), 48 h
# NCI-H522 lung = test system: NCI-H522 lung
# NCI-H23 lung = test system: NCI-H23 lung
# SNB-75 CNS = test system: SNB-75 CNS
# 786-0 renal = test system: 786-0 renal
# HCT-15 colon = test system: HCT-15 colon
# HCC-2998 colon = test system: HCC-2998 colon
# M14 melanoma = test system: M14 melanoma
# OVCAR-4 ovarian = test system: OVCAR-4 ovarian
Structure (SMILES),GI50 (NCI-H522 lung),TGI (NCI-H522 lung),GI50 (NCI-H23 lung),TGI (NCI-H23 lung),GI50 (SNB-75 CNS),TGI (SNB-75 CNS),GI50 (786-0 renal),TGI (786-0 renal),GI50 (HCT-15 colon),TGI (HCT-15 colon),GI50 (HCC-2998 colon),TGI (HCC-2998 colon),GI50 (M14 melanoma),TGI (M14 melanoma),GI50 (OVCAR-4 ovarian),TGI (OVCAR-4 ovarian)
O=[N+]([O-])c1ccc2ncccc2c1Cl,2.74 µM,6.59 µM,6.96 µM,29.8 µM,4.67 µM,> 100 µM,3.28 µM,20.4 µM,3.43 µM,14.4 µM,3.67 µM,14.2 µM,3.01 µM,11.5 µM,,
C=C1C(=O)O[C@H]2[C@H]1CC/C(COC(=O)c1ccc(C#N)cc1)=C\CC[C@@]1(C)O[C@@H]21,1.55 µM,3.35 µM,2.25 µM,6 µM,7.23 µM,21.4 µM,1.92 µM,3.99 µM,1.44 µM,3.22 µM,4.1 µM,14.3 µM,1.69 µM,3.64 µM,2.88 µM,9.39 µM
COc1ccc(-c2csc(-c3cc(Cl)cc(Cl)c3Cl)n2)cc1,> 100 µM,> 100 µM,,,40 µM,> 100 µM,> 100 µM,> 100 µM,73.5 µM,> 100 µM,44.6 µM,> 100 µM,> 100 µM,> 100 µM,53.8 µM,> 100 µM
CC(=O)OC1CC2C(C)(C)C(=O)C=CC2(C)C2CCC3(C)C(c4ccoc4)OC(=O)C4OC43C12C (centres undefined),,19.8 µM,,41.5 µM,,> 100 µM,,27.4 µM,,35.4 µM,,14.2 µM,,28.1 µM,,> 100 µM
C=C(C)[C@@H]1CC[C@]2(COC3CCCCO3)CC[C@]3(C)[C@H](CC[C@@H]4[C@@]5(C)C=C(C=O)C(=O)C(C)(C)[C@@H]5CC[C@]43C)[C@@H]12 (some centres undefined),1.38 µM,2.86 µM,1.62 µM,3.63 µM,,,1.65 µM,3.09 µM,1.77 µM,3.97 µM,2.04 µM,4.2 µM,1.34 µM,3.01 µM,2.01 µM,3.89 µM
CCc1nc(Cl)nc(Cl)c1Cl,,0.234 µM,,5.9 µM,,18.3 µM,,6.42 µM,,1.88 µM,,2.24 µM,,5.29 µM,,2.06 µM
O=C(O)C1(Cc2cccc(Nc3nccs3)n2)CCC(Oc2cccc(Cl)c2F)CC1 (centres undefined),,,12.9 µM,34.5 µM,11 µM,62.2 µM,15.5 µM,40.3 µM,3.34 µM,25.2 µM,18.2 µM,34.2 µM,2.96 µM,30.2 µM,25.8 µM,> 100 µM
CC1=C[S+](c2ccccc2)c2cccc3cc4ccccc4c1c23 (centres undefined),0.297 µM,1.57 µM,1.09 µM,2.86 µM,0.452 µM,1.55 µM,0.379 µM,,0.378 µM,8.44 µM,0.406 µM,1.58 µM,0.189 µM,,0.773 µM,2.44 µM
O=C1CCc2c(sc3[nH]c(=S)n(Cc4ccccc4)c(=O)c23)C1,0.852 µM,5.05 µM,2.79 µM,8.6 µM,2.34 µM,> 100 µM,4 µM,> 100 µM,2.78 µM,13.8 µM,2.88 µM,14 µM,3.75 µM,> 100 µM,3.99 µM,> 100 µM
CC(=O)OCC1O[C@@H]([S-])C(OC(C)=O)[C@H](OC(C)=O)[C@@H]1OC(C)=O.[Au+].c1ccc(CN2[CH-]N(Cc3ccccc3)C(c3ccccc3)=C2c2ccccc2)cc1,1.58 µM,3.66 µM,,,1.37 µM,2.68 µM,1.69 µM,3.39 µM,1.47 µM,2.94 µM,1.96 µM,3.66 µM,1.69 µM,3.58 µM,1.4 µM,3.15 µM
Cc1cc(C)nc(SC2=C(Nc3cccc(Cl)c3C)C(=O)N(Cc3ccccc3)C2=O)n1,> 160 µM,> 160 µM,> 160 µM,> 160 µM,> 160 µM,> 160 µM,> 160 µM,> 160 µM,> 160 µM,> 160 µM,> 160 µM,> 160 µM,> 160 µM,> 160 µM,> 160 µM,> 160 µM
COc1ccc(-c2cc(=O)c3c(O)cc(C)cc3o2)cc1OC,,> 100 µM,,> 100 µM,,> 100 µM,,> 100 µM,,> 100 µM,,> 100 µM,,> 100 µM,,> 100 µM
C/C(Cc1ccc(Cl)cc1)=C(/c1ccc(Cl)cc1)c1ccc(OCCN(C)C)cc1,5.31 µM,11.4 µM,4.54 µM,9.14 µM,3.47 µM,7.93 µM,4.55 µM,9.78 µM,1.19 µM,4.27 µM,2.03 µM,6.7 µM,5.19 µM,10.8 µM,3.52 µM,7.57 µM
Cc1nc(N)sc1C(=O)Nc1cc(C(=O)NCCCN(C)C)n(C)c1,> 100 µM,> 100 µM,> 100 µM,> 100 µM,> 100 µM,> 100 µM,> 100 µM,> 100 µM,> 100 µM,> 100 µM,> 100 µM,> 100 µM,,,> 100 µM,> 100 µM
C#CCOc1cccc(Nc2ncnc3ccc(NC(=O)CCl)cc23)c1,0.777 µM,3.97 µM,2.87 µM,29.9 µM,1.87 µM,> 100 µM,0.208 µM,2.84 µM,0.0709 µM,15.1 µM,3.71 µM,22.7 µM,1.07 µM,18.8 µM,5.49 µM,25.6 µM
O=C(c1ccccc1)c1nc2ccc(C(F)(F)F)cc2[n+]([O-])c1C(F)(F)F,24.7 µM,79 µM,29.1 µM,> 100 µM,37.1 µM,> 100 µM,48 µM,> 100 µM,35.1 µM,> 100 µM,30.1 µM,> 100 µM,34.5 µM,> 100 µM,22.4 µM,> 100 µM
O=C1c2c(O)cc(O)cc2OC(c2ccc(O)cc2O)C1O (centres undefined),> 100 µM,> 100 µM,,> 100 µM,> 100 µM,> 100 µM,> 100 µM,> 100 µM,> 100 µM,> 100 µM,> 100 µM,> 100 µM,,> 100 µM,> 100 µM,> 100 µM

Structure (SMILES),GI50 (NCI-H522 lung),TGI (NCI-H522 lung),GI50 (NCI-H23 lung),TGI (NCI-H23 lung),GI50 (SNB-75 CNS),TGI (SNB-75 CNS),GI50 (786-0 renal),TGI (786-0 renal),GI50 (HCT-15 colon),TGI (HCT-15 colon),GI50 (HCC-2998 colon),TGI (HCC-2998 colon),GI50 (M14 melanoma),TGI (M14 melanoma),GI50 (OVCAR-4 ovarian),TGI (OVCAR-4 ovarian)
CCOC(=O)c1cc2c(n1Cc1ccccc1)-c1oncc1CC2,1.96 µM,17.5 µM,6.37 µM,67.1 µM,4.68 µM,> 100 µM,7.51 µM,34.2 µM,3.58 µM,56.2 µM,7.87 µM,37.1 µM,3.69 µM,24.6 µM,7.69 µM,> 100 µM
CCCSC1=NC2C(N(CC)C(=O)N2CC)N1/N=C/C=C/c1ccccc1[N+](=O)[O-] (centres undefined),2.12 µM,41 µM,4.04 µM,> 100 µM,2.26 µM,54.7 µM,4.61 µM,> 100 µM,2.94 µM,> 100 µM,2.57 µM,9.27 µM,2.83 µM,20.8 µM,6.72 µM,> 100 µM
COc1ccc(-c2c(-c3cc(OC)c4c(c3)OCO4)noc2N)cc1,,0.0239 µM,0.0329 µM,20.9 µM,0.0339 µM,58.5 µM,0.0845 µM,24.1 µM,0.0431 µM,> 100 µM,0.11 µM,18.3 µM,,,0.204 µM,> 56.4 µM
CCOC(=O)Nc1ccc(-c2nc(-c3cccc(OC)c3)c(-c3ccnc(Br)c3)[nH]2)cc1,2.73 µM,9.16 µM,2 µM,4.75 µM,2.14 µM,> 100 µM,2.16 µM,> 100 µM,1.68 µM,5.45 µM,2.25 µM,6.23 µM,2.4 µM,7.5 µM,,
O=C(Oc1ccccc1Cl)c1ccccc1Nc1ccnc(C(F)(F)F)c1,0.38 µM,> 70.3 µM,0.0428 µM,0.248 µM,0.676 µM,27 µM,0.859 µM,2.39 µM,0.219 µM,0.538 µM,2.22 µM,5.26 µM,0.252 µM,0.913 µM,,
c1ccc(COCC2OC3c4ccccc4COC3C2OCc2ccccc2)cc1 (centres undefined),,,,> 100 µM,,> 100 µM,,> 100 µM,,> 100 µM,,> 100 µM,,> 100 µM,,> 100 µM
C[C@H]1C(Oc2ccc(O)cc2)OC2OC3(C)CCC4[C@H](C)CCC1C24OO3 (some centres undefined),11 µM,25.3 µM,12 µM,27.7 µM,17.6 µM,39.3 µM,10.7 µM,27.2 µM,2.36 µM,23.8 µM,,,16.1 µM,34.3 µM,4.7 µM,31 µM
COc1ccc(C(=O)COc2cccc(/C=C3\CSc4ccc(C)cc4C3=O)c2)cc1,3.62 µM,37.2 µM,6.99 µM,> 100 µM,27.9 µM,> 100 µM,38.5 µM,> 100 µM,11.7 µM,> 100 µM,,,23.6 µM,> 100 µM,7.26 µM,> 100 µM
CCC1CCc2nc3sc(C(=O)Nc4ccccc4C)c(N)c3cc2C1 (centres undefined),0.775 µM,> 100 µM,,,0.312 µM,> 100 µM,0.371 µM,> 100 µM,0.339 µM,> 100 µM,4.42 µM,> 100 µM,,,0.694 µM,> 100 µM
COc1ccc2c(c1)[n+](=O)c(C(=O)/C=C/c1cc(OC)c(OC)c(OC)c1)c(C)n2[O-],19 µM,56.6 µM,,,12 µM,34.7 µM,12.8 µM,30.7 µM,29.1 µM,> 100 µM,42.9 µM,> 100 µM,23.3 µM,> 100 µM,> 100 µM,> 100 µM
COc1ccc(C(=O)c2cc3c(N)c(C(=O)Nc4cccc(Cl)c4C)sc3nc2C)cc1,0.0623 µM,> 6.78 µM,0.173 µM,> 25 µM,,,0.187 µM,> 25 µM,0.101 µM,> 25 µM,0.28 µM,> 25 µM,0.0715 µM,> 25 µM,0.851 µM,> 25 µM
NC(=O)/C=C/NC(=O)/C=N\O,,> 100 µM,,,,> 100 µM,,> 100 µM,,> 100 µM,,> 100 µM,,> 100 µM,,> 100 µM
CCc1nc(N)nc(N)c1-c1ccc(NCCc2ccccc2)c([N+](=O)[O-])c1,,,,> 54.1 µM,,47.3 µM,,17 µM,,> 57.5 µM,,11.3 µM,,39.3 µM,,46.2 µM
O=C1C(Cl)=C(Nc2cccc(O)c2)C(=O)N1c1ccccc1Cl,17.3 µM,41.8 µM,32.2 µM,> 100 µM,,,39 µM,> 100 µM,35.2 µM,> 100 µM,,,21.5 µM,> 100 µM,40.4 µM,> 100 µM
CSc1ccc(/C=C/c2ccnc3ccccc23)cc1,,28.6 µM,,28.4 µM,,44.6 µM,,27.9 µM,,25.7 µM,,27.4 µM,,22.1 µM,,
CC/C(C)=C1\OC(=O)C(C)C(O)C(Cc2cccnc2)NC(=O)C(NC(=O)c2ncccc2O)C(C)OC1=O (centres undefined),,,,> 100 µM,,> 100 µM,,> 100 µM,,> 100 µM,,> 100 µM,,> 100 µM,,> 100 µM
Cc1ccc(S(=O)(=O)Cc2nc(-c3ccc(C(=O)NCc4cccnc4)cc3)oc2C)cc1,1.33 µM,27.7 µM,,,4.73 µM,47.9 µM,20 µM,> 100 µM,0.0524 µM,> 100 µM,18.4 µM,> 100 µM,0.0699 µM,> 100 µM,2.64 µM,> 100 µM
